# Tested on: SKM MF
# Assay: SKM MF AC1.4: ATPase screen of skeletal sarcomeric proteins with PK/LDH coupled enzyme system
# Type: biochemical
# Set-up: AC1.4 Median: unit not given here
# Details: for SKM MF AC1.4 (μM): median value (footnote †)
# Experimental: For example, test compounds can be assayed in a highly parallel fashion by using multiwell plates by placing the compounds either individually in wells or testing them in mixtures. Assay components including the target protein complex, coupling enzymes and substrates, and ATP can then be added to the wells and the absorbance or fluorescence of each well of the plate can be measured with a plate reader.
# In some embodiments, the method uses a 384 well plate format and a 25 μL reaction volume. A pyruvate kinase/lactate dehydrogenase coupled enzyme system (Huang T G and Hackney D D. (1994) J Biol Chem 269(23):16493-501) can be used to measure the rate of ATP hydrolysis in each well. As will be appreciated by those in the art, the assay components are added in buffers and reagents. The incubation periods can be optimized to give adequate detection signals over the background. The assay can be done in real time giving the kinetics of ATP hydrolysis which increases the signal to noise ratio of the assay.
# Just prior to screening, the actin, tropomyosin, and troponin complex are mixed together in the desired ratio (e.g., 7:1:1) to achieve maximal calcium regulation of the actin filament. The screen is conducted at a pCa=6.5. This calcium concentration is in the physiological range during muscle contraction.
# To measure the generation of ADP during the reaction, a pyruvate kinase/lactate dehydrogenase/NADH coupled enzyme system (PK/LDH) is added to the actin. The myosin is kept separately. The plates are read in real time so that kinetic curves are obtained. These compounds are in DMSO and were already spotted onto the bottoms of 384 well plates at 10 to 40 μg/ml final concentration.
Molecule,AC1.4 Median,SKM MF AC1.4 (μM),SKM MF AC1.4 [µM]
"CCC(CC)n1c(O)nc2ncc(Cl)c(C3=CCN(C(=O)OC(C)(C)C)CC3)c21 [tert-butyl 4-[6-chloro-1-(ethylpropyl)-2-hydroxyimidazo[4,5-b]pyridin-7-yl]-1,2,5,6-tetrahydropyridinecarboxylate]",26.7443,,
"CC[C@H](CN1CCOCC1)n1c(O)nc2ncc(Cl)cc21 [1-[(1R)-1-(morpholin-4-ylmethyl)propyl]-6-chloroimidazo[4,5-b]pyridin-2-ol]",15.2631,,
"CC(C)CC(C)n1c(O)nc2ncc(Cl)cc21 (stereo not drawn) [1-(1,3-dimethylbutyl)-6-chloroimidazo[4,5-b]pyridin-2-ol]",5.7765,,
"1-(ethylpropyl)-6-(3-thienyl)imidazo[4,5-b]pyridin-2-ol",22.3369,,
"OC[C@@H](C1CCCCC1)n1c(O)nc2ncc(Cl)cc21 [1-((1R)-1-cyclohexyl-2-hydroxyethyl)-6-chloroimidazo[4,5-b]pyridin-2-ol]",37.7104,,
"1-(ethylpropyl)-6-prop-1-ynylimidazo[4,5-b]pyridin-2-ol",27.8274,,
"CC[C@H](CN=[N+]=[N-])n1c(O)nc2ncc(Cl)cc21 [1-((1R)-3-diazo-1-ethyl-3-azaprop-3-enyl)-6-chloroimidazo[4,5-b]pyridin-2-ol]",11.2261,,
"CC[C@H](CCO)n1c(O)nc2ncc(Cl)cc21 [1-((1R)-1-ethyl-3-hydroxypropyl)-6-chloroimidazo[4,5-b]pyridin-2-ol]",7.7806,,
"C=Cc1cnc2nc(O)n(C(CC)CC)c2c1 [1-(pentan-3-yl)-6-vinyl-1H-imidazo[4,5-b]pyridin-2-ol]",3.0420,3.042^† μM,
"CCC(CC)n1c(O)nc2ncc(Cl)c(/C=N\OC(C)(C)C)c21 [7-[(1Z)-2-(tert-butoxy)-2-azavinyl]-6-chloro-1-(ethylpropyl)imidazo[4,5-b]pyridin-2-ol]",19.5317,,
"CCC(CC)n1c(O)nc2ncc(Cl)c(/C=N/OCC(C)C)c21 [7-[(1E)-2-(2-methylpropoxy)-2-azavinyl]-6-chloro-1-(ethylpropyl)imidazo[4,5-b]pyridin-2-ol]",11.4532,,
"C=CCc1c(Cl)cnc2nc(O)n(C(CC)CC)c12 [6-chloro-1-(ethylpropyl)-7-prop-2-enylimidazo[4,5-b]pyridin-2-ol]",3.6218,,

# Now from value to molecule:
AC1.4 Median,SKM MF AC1.4 (μM),SKM MF AC1.4 [µM],Molecule
3.9463,,,"CCC(CC)n1c(O)nc2ncc(Cl)c(C)c21 [6-chloro-1-(ethylpropyl)-7-methylimidazo[4,5-b]pyridin-2-ol]"
3.7477,,,"CCCC(CCC)n1c(O)nc2ncc(Cl)cc21 [6-chloro-1-(propylbutyl)imidazo[4,5-b]pyridin-2-ol]"
1.8005,,,"C=C(C)c1c(Cl)cnc2nc(O)n(C(CC)CC)c12 [6-chloro-1-(ethylpropyl)-7-(1-methylvinyl)imidazo[4,5-b]pyridin-2-ol]"
9.8768,,,"CCC(CC)n1c(O)nc2nc(Br)c(Br)cc21 [5,6-dibromo-1-(ethylpropyl)imidazo[4,5-b]pyridin-2-ol]"
13.7960,13.796^† μM,,"CCC(CC)n1c(O)nc2ncc(SC)cc21 [6-(methylthio)-1-(pentan-3-yl)-1H-imidazo[4,5-b]pyridin-2-ol]"
1.1778,,,"CCC(CC)n1c(O)nc2ncc(Cl)c(I)c21 [6-chloro-1-(ethylpropyl)-7-iodoimidazo[4,5-b]pyridin-2-ol]"
11.7273,,,"CCOC(=O)CSSCc1c(Cl)cnc2nc(O)n(C(CC)CC)c12 [ethyl 2-({[6-chloro-1-(ethylpropyl)-2-hydroxyimidazo[4,5-b]pyridin-7-yl]methyl}disulfanyl)acetate]"
42.6538,,,"6-chloro-1-(ethylpropyl)-7-(hydroxymethyl)imidazo[4,5-b]pyridin-2-ol"
1.6866,,0.82,"CCC(CC)n1c(O)nc2ncc(Cl)cc21 [6-chloro-1-(pentan-3-yl)-1H-imidazo[4,5-b]pyridin-2-ol]"
